By EC50 is commonly meant the concentration at which the effect is half-maximal.

This note sets out measurements from patent publication US20160137639A1, “TRIAZOLE-ISOXAZOLE COMPOUND AND MEDICAL USE THEREOF” (JAPAN TOBACCO INC., priority 2012, published 2016).

For experiment [1], the target named is T1, human RORγ (Homo sapiens, UniProt P51449).
T1 construct: human, NM_005060.3 and from Ser253 to Lys518; expressed in transfected cells; host or cells: CHO cells (transient co-transfection with pG5-Luc reporter)
T1 sequence (P51449 253-518): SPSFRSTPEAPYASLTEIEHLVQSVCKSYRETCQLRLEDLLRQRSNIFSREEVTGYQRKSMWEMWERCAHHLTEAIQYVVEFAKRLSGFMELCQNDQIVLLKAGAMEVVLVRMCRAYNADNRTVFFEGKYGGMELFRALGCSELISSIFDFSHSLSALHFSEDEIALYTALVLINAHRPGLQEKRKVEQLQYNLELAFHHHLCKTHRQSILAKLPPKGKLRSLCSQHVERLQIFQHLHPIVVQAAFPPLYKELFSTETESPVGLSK
Put plainly: Luciferase reporter gene assay of inhibitory effect against RORγ transcriptional activity (GAL4-hRORγ plasmid in CHO cells). Type of experiment: cell-based. The conditions noted are these: read-out: LUC EC50 (μM) hRORg. A general note: A reporter such as luciferase makes a cellular process visible.

Experiment [2] has as its target T2, mouse RORγ (Mus musculus, UniProt P51450).
T2 construct: mouse, NM_011281.2 and from Ile251 to Lys516; expressed in transfected cells; host or cells: CHO cells (transient co-transfection with pG5-Luc reporter)
T2 sequence (P51450 251-516): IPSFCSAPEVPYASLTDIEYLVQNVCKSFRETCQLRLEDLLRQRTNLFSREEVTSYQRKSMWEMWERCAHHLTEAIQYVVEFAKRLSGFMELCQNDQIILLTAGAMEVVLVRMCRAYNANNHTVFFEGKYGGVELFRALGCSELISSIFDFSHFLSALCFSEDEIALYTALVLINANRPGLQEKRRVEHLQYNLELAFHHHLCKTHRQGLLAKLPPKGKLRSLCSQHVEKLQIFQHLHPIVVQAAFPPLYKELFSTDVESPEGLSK
Put plainly: Luciferase reporter gene assay of inhibitory effect against RORγ transcriptional activity (GAL4-mRORγ plasmid in CHO cells). It is filed as cell-based. The conditions noted are these: read-out: LUC EC50 (μM) mRORg. In a few lines: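 Readout is intracellular luciferase after 2-day compound exposure (8 concentrations, 0.1% DMSO) in CHO cells expressing GAL4 fused to mouse RORγ LBD residues Ile251–Lys516 plus pG5-Luc reporter. EC50 fitted from %-of-control; points showing resazurin-detected cytotoxicity dropped.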

`COCc1ccc(NC(=O)CCc2nnc(CCC(C)C)n2C2CC2)c(C)c1` [Example F-136]: the EC50 in experiment [1] and in experiment [2] was above 3 µM throughout.
Regarding `Cc1cc(F)ccc1NC(=O)CCc1nnc(CCC(C)C)n1C1CC1` [Example F-137], the EC50 is above 3 µM in experiment [1] and below 3 µM in experiment [2].
For `Cc1cc(Cl)ccc1NC(=O)CCc1nnc(CCC(C)C)n1C1CC1` [Example F-138], the results for the EC50 in experiment [1] and in experiment [2] were above 3 µM and below 3 µM, respectively.
As to `CC(C)CCc1nnc(CCC(=O)Nc2nnc3ccccn23)n1C1CC1` [Example F-139], the EC50 in experiment [1] and in experiment [2] was above 3 µM each time.
For `Cc1ccc(Br)cc1NC(=O)CCc1nnc(CCC(C)C)n1C1CC1` [Example F-140], the EC50 in experiment [1] and in experiment [2] was above 3 µM in each case.
With `Cc1ccc(NC(=O)CCc2nnc(CCC3CCCCC3)n2CC(F)(F)F)c(C)c1` [Example F-142], the EC50 in experiment [1] and in experiment [2] was below 3 µM each time.
As to `Cc1ccc(C#N)cc1NC(=O)CCc1nnc(CCC(C)C)n1C1CC1` [Example F-143], the EC50 in experiment [1] and in experiment [2] was above 3 µM each time.
For `Cc1c(Cl)cccc1NC(=O)CCc1nnc(COC2CCCCC2)n1C1CC1` [Example F-144], the EC50 in experiment [1] and in experiment [2] was below 3 µM each time.
Consider `CCc1cccc(NC(=O)CCc2nnc(CCC(C)C)n2C2CC2)c1C` [Example F-147], for which the figures for the EC50 in experiment [1] and in experiment [2] were above 3 µM and below 3 µM, respectively.
`COc1cc(C)ccc1CNC(=O)CCc1nnc(CCC(C)C)n1C1CC1` [Example F-148]: the EC50 in experiment [1] and in experiment [2] was below 3 µM throughout.
Regarding `Cc1ccc(CNC(=O)CCc2nnc(CCC(C)C)n2C2CC2)c(O)c1` [Example F-149], the EC50 in experiment [1] and in experiment [2] was above 3 µM in each case.
As for `CC(C)CCc1nnc(CCC(=O)NCc2cccc3cn[nH]c23)n1C1CC1` [Example F-150], the EC50 in experiment [1] and in experiment [2] was above 3 µM in each case.
With `Cc1ccc(C(F)(F)F)cc1NC(=O)CCc1nnc(CCC(C)C)n1C1CC1` [Example F-151], the EC50 in experiment [1] and in experiment [2] was above 3 µM throughout.
For `Cc1ccc(C2CC2)cc1NC(=O)CCc1nnc(CCC(C)C)n1C1CC1` [Example F-152], the EC50 in experiment [1] and in experiment [2] was above 3 µM throughout.
Consider `CCCc1ccc(C)c(NC(=O)CCc2nnc(CCC(C)C)n2C2CC2)c1` [Example F-153], for which the EC50 in experiment [1] and in experiment [2] was above 3 µM in each case.
Take `Cc1ccc(C(N)=O)cc1NC(=O)CCc1nnc(CCC(C)C)n1C1CC1` [Example F-154]: the EC50 in experiment [1] and in experiment [2] was above 3 µM each time.
Turning to `Cc1c(NC(=O)CCc2nnc(CCC(C)C)n2C2CC2)cccc1C1CC1` [Example F-156], the EC50 in experiment [1] is above 3 µM; in experiment [2], below 3 µM.
The matching figures for `Cc1cc(C(N)=O)ccc1NC(=O)CCc1nnc(CCC(C)C)n1C1CC1` [Example F-157]: above 3 µM and above 3 µM.
The matching figures for `Cc1c(Cl)cccc1NC(=O)CCc1nnc(C#CC(C)C)n1C1CC1` [Example F-158]: above 3 µM and below 3 µM.
`Cc1cc(C#N)ccc1NC(=O)CCc1nnc(CCC(C)C)n1C1CC1` [Example F-161]: the EC50 in experiment [1] and in experiment [2] was above 3 µM in each case.
Regarding `Cc1c(Cl)cccc1NC(=O)CCc1nnc(CCOC(C)(C)C)n1C1CC1` [Example F-163], the EC50 in experiment [1] and in experiment [2] was below 3 µM each time.
Take `Cc1c(NC(=O)CCc2nnc(CCC(C)C)n2C2CC2)ccc(Cl)c1Cl` [Example F-165]: the EC50 in experiment [1] is above 3 µM; in experiment [2], below 3 µM.
The matching figures for `Cc1c(Cl)cccc1NC(=O)CCc1nnc(COCc2ccccc2)n1C1CC1` [Example F-166]: above 3 µM and below 3 µM.
For `Cc1c(Cl)cccc1NC(=O)CCc1nnc(CCN2CCCCC2)n1C1CC1` [Example F-169], the concentration giving a half-maximal response (EC50) in experiment [1] and in experiment [2] was above 3 µM throughout.
As to `Cc1c(Cl)cccc1NC(=O)CCc1nnc(CCNC(C)C)n1C1CC1` [Example F-171], the 50% effective concentration (EC50) in experiment [1] and in experiment [2] was above 3 µM each time.
As to `Cc1c(Cl)cccc1NC(=O)CCc1nnc(CCn2cccn2)n1C1CC1` [Example F-172], the EC50 in experiment [1] and in experiment [2] was above 3 µM in each case.
`COCc1ccc(C)c(NC(=O)CCc2nnc(CCC(C)C)n2C2CC2)c1` [Example F-174]: the EC50 in experiment [1] and in experiment [2] was above 3 µM each time.
Turning to `Cc1c(Cl)cccc1NC(=O)CCc1nnc(CC(=O)OC(C)(C)C)n1C1CC1` [Example F-178], the EC50 in experiment [1] and in experiment [2] was below 3 µM throughout.
With `COc1ccccc1CNC(=O)CCc1nnc(CCC(C)C)n1C1CC1` [Example F-179], the EC50 in experiment [1] and in experiment [2] was above 3 µM each time.
Take `Cc1ccc(NCc2nnc(CCC(=O)Nc3cccc(Cl)c3C)n2C2CC2)cc1` [Example F-180]: the EC50 in experiment [1] was above 3 µM; in experiment [2], below 3 µM.
Regarding `Cc1c(Cl)cccc1NC(=O)CCc1nnc(CCCC(C)(C)C)n1C1CC1` [Example F-181], the concentration giving a half-maximal response (EC50) in experiment [1] and in experiment [2] was below 3 µM throughout.
For the compound `CCOC(=O)CCc1nnc(CCC(=O)Nc2cccc(Cl)c2C)n1C1CC1` [Example F-183], the EC50 in experiment [1] and in experiment [2] was above 3 µM in each case.
Take `Cc1c(Cl)cccc1NC(=O)CCc1nnc(CCC(=O)N(C)C)n1C1CC1` [Example F-184]: the EC50 in experiment [1] and in experiment [2] was above 3 µM in each case.
For `Cc1c(Cl)cccc1NC(=O)CCc1nnc(CCC(=O)O)n1C1CC1` [Example F-185], the EC50 in experiment [1] and in experiment [2] was above 3 µM each time.
For the compound `Cc1c(Cl)cccc1NC(=O)CCc1nnc(CCN2CCCCC2=O)n1C1CC1` [Example F-187], the EC50 in experiment [1] and in experiment [2] was above 3 µM throughout.
With `COc1cc(C)ccc1CNC(=O)CCc1nnc(CCC2CCCCC2)n1C1CC1` [Example F-188], the EC50 in experiment [1] and in experiment [2] was below 3 µM each time.
For `Cc1ccc(O)cc1NC(=O)CCc1nnc(CCC(C)C)n1C1CC1` [Example F-192], the EC50 in experiment [1] and in experiment [2] was above 3 µM in each case.
As for `COc1cc(C)c(Cl)cc1CNC(=O)CCc1nnc(CCC(C)C)n1C1CC1` [Example F-204], the EC50 in experiment [1] and in experiment [2] was above 3 µM in each case.
In the case of `COc1cc(C)c(C)cc1CNC(=O)CCc1nnc(CCC(C)C)n1C1CC1` [Example F-205], the EC50 in experiment [1] and in experiment [2] was above 3 µM throughout.
Turning to `Cc1ccc(NCc2nnc(CCC(=O)Nc3cccc(Cl)c3C)n2C2CC2)c(C)c1` [Example F-206], the EC50 in experiment [1] and in experiment [2] was below 3 µM each time.
For `Cc1ccc(NCc2nnc(CCC(=O)Nc3cccc(Cl)c3C)n2C2CC2)cc1C` [Example F-207], the EC50 in experiment [1] and in experiment [2] was below 3 µM each time.
For `COc1ccc(F)cc1CNC(=O)CCc1nnc(CCC(C)C)n1C1CC1` [Example F-208], the EC50 in experiment [1] and in experiment [2] was above 3 µM each time.
Consider `Cc1c(Cl)cccc1NC(=O)CCc1nnc(CN2C(=O)c3ccccc3C2=O)n1C1CC1` [Example F-209], for which the EC50 in experiment [1] and in experiment [2] was above 3 µM in each case.
Regarding `COC(=O)C(C)(C)CCc1nnc(CCC(=O)Nc2cccc(Cl)c2C)n1C1CC1` [Example F-210], the EC50 in experiment [1] and in experiment [2] was below 3 µM throughout.
